{
  "source": "ChEMBL document CHEMBL4837240",
  "about": "(J Med Chem, 2021)",
  "key": {"MDA-MB-231 [1]": {"test_system": "MDA-MB-231", "assay": "Induction of apoptosis in human MDA-MB-231 cells assessed as increase in apoptotic cells incubated for 24 hrs by Hoechst 33258 staining under a fluorescence microscopy", "type": "functional, cell-based"}, "[2]": {"biological_target": "T1, Vascular endothelial growth factor receptor 3 (Homo sapiens, UniProt P35916)", "T1 sequence (P35916 whole entry)": "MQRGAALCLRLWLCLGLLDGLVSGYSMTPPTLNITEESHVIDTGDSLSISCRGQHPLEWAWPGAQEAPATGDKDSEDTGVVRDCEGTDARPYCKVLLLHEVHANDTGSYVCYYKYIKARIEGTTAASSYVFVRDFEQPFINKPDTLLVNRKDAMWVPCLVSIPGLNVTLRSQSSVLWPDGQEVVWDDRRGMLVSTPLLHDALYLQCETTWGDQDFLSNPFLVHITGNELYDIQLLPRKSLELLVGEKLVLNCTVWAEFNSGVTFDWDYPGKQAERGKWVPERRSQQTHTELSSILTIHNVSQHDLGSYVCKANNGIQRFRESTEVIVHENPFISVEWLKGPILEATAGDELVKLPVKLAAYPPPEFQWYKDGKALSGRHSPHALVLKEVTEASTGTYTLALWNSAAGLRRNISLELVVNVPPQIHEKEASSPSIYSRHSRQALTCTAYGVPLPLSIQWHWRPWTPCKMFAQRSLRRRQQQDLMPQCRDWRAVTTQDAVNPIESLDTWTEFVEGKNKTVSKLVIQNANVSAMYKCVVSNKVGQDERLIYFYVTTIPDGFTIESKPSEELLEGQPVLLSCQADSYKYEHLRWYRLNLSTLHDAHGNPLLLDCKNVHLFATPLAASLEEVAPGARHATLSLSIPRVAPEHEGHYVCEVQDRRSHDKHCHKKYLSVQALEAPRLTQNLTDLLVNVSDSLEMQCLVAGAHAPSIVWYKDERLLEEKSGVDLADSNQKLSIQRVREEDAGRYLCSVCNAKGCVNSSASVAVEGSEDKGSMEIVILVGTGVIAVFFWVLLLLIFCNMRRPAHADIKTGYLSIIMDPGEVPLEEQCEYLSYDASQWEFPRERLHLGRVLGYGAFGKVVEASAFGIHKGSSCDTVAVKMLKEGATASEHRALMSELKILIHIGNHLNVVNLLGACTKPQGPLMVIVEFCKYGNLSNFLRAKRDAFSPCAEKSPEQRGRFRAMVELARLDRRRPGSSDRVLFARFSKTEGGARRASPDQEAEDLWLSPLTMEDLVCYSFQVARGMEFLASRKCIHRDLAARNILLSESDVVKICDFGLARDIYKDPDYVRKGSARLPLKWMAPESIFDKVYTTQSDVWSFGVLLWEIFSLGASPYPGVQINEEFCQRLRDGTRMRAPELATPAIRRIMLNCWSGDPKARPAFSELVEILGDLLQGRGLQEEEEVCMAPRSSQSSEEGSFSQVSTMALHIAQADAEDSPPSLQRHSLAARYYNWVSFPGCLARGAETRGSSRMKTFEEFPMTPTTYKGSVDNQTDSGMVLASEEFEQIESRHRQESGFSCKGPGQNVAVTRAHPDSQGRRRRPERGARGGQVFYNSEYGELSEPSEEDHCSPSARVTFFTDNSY", "assay": "Inhibition of human FLT4/VEGFR3 assessed as residual kinase activity at 1 uM relative to control"}, "Misshapen-like kinase 1 [3]": {"biological_target": "T2, Misshapen-like kinase 1 (Homo sapiens, UniProt Q8N4C8)", "assay": "Inhibition of human MINK assessed as residual kinase activity at 1 uM relative to control"}, "[4]": {"biological_target": "Vascular endothelial growth factor receptor 2 (Homo sapiens, UniProt P35968)", "assay": "Inhibition of human KDR/VEGFR2 assessed as residual kinase activity at 1 uM relative to control"}, "[5]": {"biological_target": "T3, Vascular endothelial growth factor receptor 1 (Homo sapiens, UniProt P17948)", "T3 sequence (P17948 whole entry)": "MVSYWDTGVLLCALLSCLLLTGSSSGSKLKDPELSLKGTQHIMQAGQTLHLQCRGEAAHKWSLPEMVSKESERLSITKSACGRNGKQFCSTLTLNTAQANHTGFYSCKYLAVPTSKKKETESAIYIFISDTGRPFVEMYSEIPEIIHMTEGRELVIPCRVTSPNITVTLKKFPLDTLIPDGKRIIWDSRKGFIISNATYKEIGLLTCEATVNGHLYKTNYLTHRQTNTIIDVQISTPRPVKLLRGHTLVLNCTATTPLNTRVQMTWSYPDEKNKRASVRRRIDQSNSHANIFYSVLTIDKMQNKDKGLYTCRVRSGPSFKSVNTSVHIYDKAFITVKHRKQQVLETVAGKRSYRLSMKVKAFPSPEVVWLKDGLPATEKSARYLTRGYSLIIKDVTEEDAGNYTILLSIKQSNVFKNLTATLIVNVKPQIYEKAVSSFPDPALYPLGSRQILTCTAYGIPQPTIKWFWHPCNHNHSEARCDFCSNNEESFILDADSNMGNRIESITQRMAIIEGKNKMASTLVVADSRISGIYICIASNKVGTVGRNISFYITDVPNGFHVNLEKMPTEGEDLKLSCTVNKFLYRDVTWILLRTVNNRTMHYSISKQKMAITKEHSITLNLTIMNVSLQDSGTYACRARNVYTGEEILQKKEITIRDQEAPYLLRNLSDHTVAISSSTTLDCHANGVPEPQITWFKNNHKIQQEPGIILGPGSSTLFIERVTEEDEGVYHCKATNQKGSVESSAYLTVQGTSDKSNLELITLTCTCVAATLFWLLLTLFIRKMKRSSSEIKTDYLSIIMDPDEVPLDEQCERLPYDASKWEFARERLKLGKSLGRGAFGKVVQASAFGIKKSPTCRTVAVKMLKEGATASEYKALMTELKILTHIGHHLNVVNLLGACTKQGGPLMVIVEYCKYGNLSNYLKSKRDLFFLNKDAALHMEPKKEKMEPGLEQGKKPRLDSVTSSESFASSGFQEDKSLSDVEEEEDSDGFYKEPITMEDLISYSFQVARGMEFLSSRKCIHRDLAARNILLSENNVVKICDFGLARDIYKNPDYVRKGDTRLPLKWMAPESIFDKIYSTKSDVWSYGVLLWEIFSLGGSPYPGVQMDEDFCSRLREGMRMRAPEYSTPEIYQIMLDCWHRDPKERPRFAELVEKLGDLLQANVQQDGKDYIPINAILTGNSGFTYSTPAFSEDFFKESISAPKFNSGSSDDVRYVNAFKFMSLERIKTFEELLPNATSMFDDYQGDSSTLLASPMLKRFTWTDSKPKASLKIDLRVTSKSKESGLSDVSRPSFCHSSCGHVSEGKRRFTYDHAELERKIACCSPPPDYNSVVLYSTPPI", "assay": "Inhibition of human FLT1/VEGFR1 assessed as residual kinase activity at 1 uM relative to control"}, "Misshapen-like kinase 1 [6]": {"biological_target": "T2, Misshapen-like kinase 1", "assay": "Inhibition of human MINK"}, "[7]": {"biological_target": "Maternal embryonic leucine zipper kinase (Homo sapiens, UniProt Q14680)", "sequence (Q14680 whole entry)": "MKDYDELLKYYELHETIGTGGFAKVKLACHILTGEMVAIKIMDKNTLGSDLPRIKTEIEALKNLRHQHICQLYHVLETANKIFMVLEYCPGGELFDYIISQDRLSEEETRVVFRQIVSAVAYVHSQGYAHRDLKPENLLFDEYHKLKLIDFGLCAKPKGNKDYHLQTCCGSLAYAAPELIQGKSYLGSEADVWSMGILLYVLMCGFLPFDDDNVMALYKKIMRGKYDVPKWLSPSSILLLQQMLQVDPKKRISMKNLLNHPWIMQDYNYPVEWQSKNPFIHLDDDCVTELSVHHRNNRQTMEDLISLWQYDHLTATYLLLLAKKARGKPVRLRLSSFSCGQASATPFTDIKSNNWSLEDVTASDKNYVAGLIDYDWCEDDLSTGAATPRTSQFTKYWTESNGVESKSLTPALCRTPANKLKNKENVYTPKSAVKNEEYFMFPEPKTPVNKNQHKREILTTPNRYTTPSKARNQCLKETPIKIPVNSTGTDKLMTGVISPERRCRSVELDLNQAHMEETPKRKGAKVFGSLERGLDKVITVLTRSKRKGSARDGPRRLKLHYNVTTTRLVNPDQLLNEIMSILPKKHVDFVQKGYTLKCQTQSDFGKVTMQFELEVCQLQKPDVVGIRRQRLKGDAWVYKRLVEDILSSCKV", "assay": "Inhibition of human MELK"}, "[8]": {"biological_target": "T3, Vascular endothelial growth factor receptor 1", "assay": "Inhibition of human FLT1/VEGFR1"}, "[9]": {"assay": "Antiproliferative activity against VEGF-D-induced human dermal lymphatic endothelial cells assessed as cell viability incubated for 48 hrs by CCK-8 assay", "type": "functional, tissue-based", "details": "HDLEC"}, "HDLEC [10]": {"test_system": "HDLEC", "assay": "Anti-lymphangiogenic activity against human dermal lymphatic endothelial cells assessed as inhibition of VEGF-C-mediated tube formation at 100 nM incubated for 12 hrs by inverted microscopy", "type": "functional, tissue-based"}, "HDLEC [11]": {"test_system": "HDLEC", "assay": "Inhibition of cell migration in VEGF-C-induced human dermal lymphatic endothelial cells assessed as cell migration at 100 nM incubated for 24 hrs by inverted microscopy based by scratch wound healing assay", "type": "functional, tissue-based"}, "HDLEC [12]": {"test_system": "HDLEC", "assay": "Downregulation of MMP2 protein expression in human dermal lymphatic endothelial cells incubated for 24 hrs by Western blot analysis", "type": "functional, tissue-based"}, "MDA-MB-231 [13]": {"test_system": "MDA-MB-231", "assay": "Inhibition of colony formation in human MDA-MB-231 cells at 2.5 uM incubated for 24 hrs by clonogenic assay", "type": "functional"}, "MDA-MB-436 [14]": {"test_system": "MDA-MB-436", "assay": "Induction of apoptosis in human MDA-MB-436 cells assessed as increase in apoptotic cells incubated for 24 hrs by Hoechst 33258 staining under a fluorescence microscopy", "type": "functional, cell-based"}, "MDA-MB-231 [15]": {"test_system": "MDA-MB-231", "assay": "Induction of apoptosis in human MDA-MB-231 cells assessed as upregulation of Bax expression up to 10 uM incubated for 24 hrs by Western blotting analysis", "type": "functional, cell-based", "details": "dose microM <=10, time 24.0 hrs"}, "MDA-MB-231 [16]": {"test_system": "MDA-MB-231", "assay": "Induction of apoptosis in human MDA-MB-231 cells assessed as upregulation of caspase 3 up to 10 uM incubated for 24 hrs by Western blotting analysis", "type": "functional, cell-based", "details": "dose microM <=10, time 24.0 hrs"}, "MDA-MB-436 [17]": {"test_system": "MDA-MB-436", "assay": "Induction of apoptosis in human MDA-MB-436 cells assessed as cleaved caspase 3 up to 10 uM incubated for 24 hrs by Western blotting analysis", "type": "functional, cell-based", "details": "dose microM <=10, time 24.0 hrs"}, "MDA-MB-436 [18]": {"test_system": "MDA-MB-436", "assay": "Antimigratory activity against human MDA-MB-436 cells assessed as suppression of migration measured after 24 hrs by Wound healing assay", "type": "functional, cell-based"}, "MDA-MB-436 [19]": {"test_system": "MDA-MB-436", "assay": "Upregulation of E-cadherin protein expression in human MDA-MB-436 cells up to 10 uM incubated for 24 hrs by Western blot analysis", "type": "functional, cell-based", "details": "dose microM <=10, time 24.0 hrs"}, "[20]": {"biological_target": "T1, Vascular endothelial growth factor receptor 3", "assay": "Inhibition of VEGFR3 in human MDA-MB-231 cells assessed as inhibition of AKT phosphorylation at 2.5 uM incubated for 24 hrs by Western blot analysis", "type": "cell-based"}, "[21]": {"biological_target": "T1, Vascular endothelial growth factor receptor 3", "assay": "Inhibition of VEGFR3 in human MDA-MB-231 cells assessed as inhibition of ERK1/2 phosphorylation at 2.5 uM incubated for 24 hrs by Western blot analysis", "type": "cell-based"}, "[22]": {"biological_target": "T1, Vascular endothelial growth factor receptor 3", "assay": "Inhibition of VEGFR3 phosphorylation in human MDA-MB-436 cells at 2.5 uM incubated for 24 hrs by Western blot analysis", "type": "cell-based"}, "[23]": {"assay": "Cmax in Sprague-Dawley rat at 1 mg/kg, iv by LC-MS analysis", "type": "ADME, organism-based", "parameters": "route intravenous, dose 1 mg/kg", "details": "in vivo"}, "[24]": {"assay": "AUC (0 to t) in Sprague-Dawley rat at 10 mg/kg, po by LC-MS analysis", "type": "ADME, organism-based", "parameters": "dose 10 mg/kg", "details": "in vivo"}, "[25]": {"assay": "Apparent volume of distribution in Sprague-Dawley rat at 1 mg/kg, iv by LC-MS analysis", "type": "ADME, organism-based", "details": "in vivo, read-out: Vz"}, "[26]": {"assay": "Bioavailability in Sprague-Dawley rat at 1 mg/kg, iv by LC-MS analysis", "type": "ADME, organism-based", "details": "in vivo"}, "[27]": {"assay": "Toxicity in BALB/c mouse xenografted with MDA-MB-231 cells assessed as uric acid level in blood at 300 mg/kg, po", "type": "organism-based", "details": "in vivo"}, "[28]": {"assay": "Toxicity in BALB/c mouse xenografted with MDA-MB-231 cells assessed as change in heart at 300 mg/kg, po by hematoxylin and eosin staining based analysis", "type": "organism-based", "details": "in vivo"}, "[29]": {"assay": "Toxicity in BALB/c mouse xenografted with MDA-MB-231 cells assessed as change in liver at 300 mg/kg, po by hematoxylin and eosin staining based analysis", "type": "organism-based", "details": "in vivo"}, "[30]": {"assay": "Toxicity in BALB/c mouse xenografted with MDA-MB-231 cells assessed as change in spleen at 300 mg/kg, po by hematoxylin and eosin staining based analysis", "type": "organism-based", "details": "in vivo"}, "[31]": {"assay": "Toxicity in BALB/c mouse xenografted with MDA-MB-231 cells assessed as change in lung at 300 mg/kg, po by hematoxylin and eosin staining based analysis", "type": "organism-based", "details": "in vivo"}, "[32]": {"biological_target": "Vascular endothelial growth factor receptor 3 (Mus musculus) (UniProt P35917)", "sequence (P35917 whole entry)": "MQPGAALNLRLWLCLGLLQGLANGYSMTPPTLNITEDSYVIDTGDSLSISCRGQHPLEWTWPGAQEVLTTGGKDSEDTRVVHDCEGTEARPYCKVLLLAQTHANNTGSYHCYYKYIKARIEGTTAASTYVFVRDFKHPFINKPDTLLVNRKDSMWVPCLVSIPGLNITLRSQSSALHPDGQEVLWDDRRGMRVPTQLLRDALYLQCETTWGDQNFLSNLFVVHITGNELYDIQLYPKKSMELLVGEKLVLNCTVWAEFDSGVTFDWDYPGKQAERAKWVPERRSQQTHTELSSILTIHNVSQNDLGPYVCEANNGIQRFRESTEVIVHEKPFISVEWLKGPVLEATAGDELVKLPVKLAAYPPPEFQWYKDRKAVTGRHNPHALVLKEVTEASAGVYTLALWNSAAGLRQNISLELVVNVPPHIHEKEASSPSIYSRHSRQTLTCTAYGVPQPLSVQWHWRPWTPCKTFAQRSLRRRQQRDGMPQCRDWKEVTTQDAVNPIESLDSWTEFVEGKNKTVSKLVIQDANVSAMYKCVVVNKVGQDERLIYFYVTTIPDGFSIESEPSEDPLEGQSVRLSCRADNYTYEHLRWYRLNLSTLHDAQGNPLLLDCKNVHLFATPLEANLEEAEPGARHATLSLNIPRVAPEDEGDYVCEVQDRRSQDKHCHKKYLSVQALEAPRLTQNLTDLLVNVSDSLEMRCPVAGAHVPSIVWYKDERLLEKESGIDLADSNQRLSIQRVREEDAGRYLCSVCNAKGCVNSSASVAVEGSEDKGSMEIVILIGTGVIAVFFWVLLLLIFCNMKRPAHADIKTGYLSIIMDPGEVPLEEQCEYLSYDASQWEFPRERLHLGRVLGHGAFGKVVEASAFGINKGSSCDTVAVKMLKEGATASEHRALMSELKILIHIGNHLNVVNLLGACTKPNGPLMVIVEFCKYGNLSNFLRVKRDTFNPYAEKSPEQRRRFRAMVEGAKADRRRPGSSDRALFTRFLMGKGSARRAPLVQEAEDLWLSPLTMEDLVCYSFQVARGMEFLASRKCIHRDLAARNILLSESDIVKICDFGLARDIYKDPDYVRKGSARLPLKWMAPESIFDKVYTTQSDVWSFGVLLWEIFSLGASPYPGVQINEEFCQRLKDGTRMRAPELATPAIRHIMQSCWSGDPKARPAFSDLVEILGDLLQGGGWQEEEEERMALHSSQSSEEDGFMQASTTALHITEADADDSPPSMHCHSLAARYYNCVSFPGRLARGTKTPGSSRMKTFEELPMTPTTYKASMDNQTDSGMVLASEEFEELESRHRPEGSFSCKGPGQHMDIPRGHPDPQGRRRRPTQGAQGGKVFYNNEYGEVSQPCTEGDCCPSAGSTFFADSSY", "assay": "In vivo inhibition of VEGFR3 phosphorylation in BALB/c mouse xenografted with MDA-MB-231 cells at 25 mg/kg, po by immunohistochemistry analysis", "type": "functional, organism-based"}, "[33]": {"biological_target": "Vascular endothelial growth factor receptor 3 (Mus musculus) (UniProt P35917)", "assay": "In vivo inhibition of VEGFR3 phosphorylation in BALB/c mouse xenografted with MDA-MB-231 cells assessed as decrease in AKT phosphorylation at 25 mg/kg, po by immunohistochemistry analysis", "type": "functional, organism-based"}, "Mus musculus": {"test_system": "Mus musculus", "assay": "In vivo inhibition of VEGFR2 phosphorylation in BALB/c mouse xenografted with MDA-MB-231 cells at 25 mg/kg, po by immunohistochemistry analysis", "type": "functional, organism-based"}},
  "note": "The source made the active and inactive calls. The rule behind the calls is not given here.",
  "data": [
    {"smiles": "CN1CCN(c2ccc(-c3cc4c(N5CCN(C(=O)Nc6ccc(Cl)c(C(F)(F)F)c6)CC5)ncnc4s3)cc2)CC1", "values": [
      {"measurement": "Activity", "setting": "MDA-MB-231 [1]", "value": "Dose-Dependent Effect"},
      {"measurement": "Activity", "setting": "[2]", "value": 0, "unit": "%"},
      {"measurement": "Activity", "setting": "Misshapen-like kinase 1 [3]", "value": 5, "unit": "%"},
      {"measurement": "Activity", "setting": "[4]", "value": 85, "unit": "%"},
      {"measurement": "Activity", "setting": "[5]", "value": 97, "unit": "%"},
      {"measurement": "IC50", "setting": "Misshapen-like kinase 1 [6]", "value": 335, "unit": "nM"},
      {"measurement": "IC50", "setting": "[7]", "value": 700, "unit": "nM"},
      {"measurement": "IC50", "setting": "[8]", "value": "> 10000", "unit": "nM"},
      {"measurement": "IC50", "setting": "[9]", "value": 680, "unit": "nM"},
      {"measurement": "Activity", "setting": "HDLEC [10]", "value": "Active"},
      {"measurement": "Activity", "setting": "HDLEC [11]", "value": "Active"},
      {"measurement": "Activity", "setting": "HDLEC [12]", "value": "Active"},
      {"measurement": "inhibition at 2.5 µM", "setting": "MDA-MB-231 [13]", "value": 100, "unit": "%"},
      {"measurement": "Activity", "setting": "MDA-MB-436 [14]", "value": "Dose-Dependent Effect"},
      {"measurement": "Activity", "setting": "MDA-MB-231 [15]", "value": "Active"},
      {"measurement": "Activity", "setting": "MDA-MB-231 [16]", "value": "Active"},
      {"measurement": "Activity", "setting": "MDA-MB-436 [17]", "value": "Active"},
      {"measurement": "Activity", "setting": "MDA-MB-436 [18]", "value": "Active"},
      {"measurement": "Activity", "setting": "MDA-MB-436 [19]", "value": "Active"},
      {"measurement": "inhibition", "setting": "[20]", "value": "Active"},
      {"measurement": "inhibition", "setting": "[21]", "value": "Active"},
      {"measurement": "inhibition", "setting": "[22]", "value": "Active"},
      {"measurement": "Cmax", "setting": "[23]", "value": 420, "unit": "ng/mL"},
      {"measurement": "AUC(0-t)", "setting": "[24]", "value": 9220, "unit": "ng·h/mL"},
      {"measurement": "Vd", "setting": "[25]", "value": 5.4, "unit": "L/kg"},
      {"measurement": "bioavailability", "setting": "[26]", "value": 30.9, "unit": "%"},
      {"measurement": "Activity", "setting": "[27]", "value": "Non-Toxic"},
      {"measurement": "Activity", "setting": "[28]", "value": "Non-Toxic"},
      {"measurement": "Activity", "setting": "[29]", "value": "Non-Toxic"},
      {"measurement": "Activity", "setting": "[30]", "value": "Non-Toxic"},
      {"measurement": "Activity", "setting": "[31]", "value": "Non-Toxic"},
      {"measurement": "Activity", "setting": "[32]", "value": "Active"},
      {"measurement": "Activity", "setting": "[33]", "value": "Active"},
      {"measurement": "Activity", "setting": "Mus musculus", "value": "inactive"}
    ]}
  ]
}
